Patent publication US8283311B2, “Peptide-containing food intake regulator” (Maruha Nichiro Foods, Inc., priority 2008, dated 2012)
Ends that are not written are not given here.

Tested on: Male SD rats
Assay: Measurement of food intake after intravenous administration
Type: in vivo
Settings: test conditions not stated for this peptide
Description: Male SD rats (Sprague-Dawley, body weight of 275±25 g) were housed and fed in 45×23×15-cm APECR cages, five rats per cage. The rats were acclimated for 1 week or more on a 12-h light/12-h dark cycle at a room temperature of 22 to 24° C. and a humidity of 60 to 80% with free access to food and water before the test. The rats used for the test were fasted for 12 hours overnight before initiation of the test. After fasting, the samples to be tested as the food intake regulator were dissolved in saline and the dissolved test samples were intravenously given (150 μg/body) to the rats, respectively, in the treatment group and, then, their food intakes were measured 1, 2, 4, and […] administration. In contrast, in the control group, saline was intravenously given and their food intakes were measured in the same way.

Sequence: GRVYRPCWQV [SEQ ID NO: 34]
- food intake regulation activity: no food intake regulation activity
